From ChEMBL document CHEMBL1671682, “Inhibition of human immunodeficiency virus type 1 by triciribine involves the accessory protein nef” (Antimicrob Agents Chemother, 2010)

Assays:
[1] = tested on: Simian immunodeficiency virus; assay: Antiviral activity against simian immunodeficiency virus Mac251 infected in phytohemagglutininin and interleukin-2-stimulated PBMC assessed as inhibition of viral Reverse transcriptase by [3H]TTP incorporation assay; format: functional, organism-based
PBMC [2] = assay: Cytotoxicity against human PBMC assessed as cell viability at 10 uM by MTS assay; format: cell-based
[3] = tested on: Human immunodeficiency virus 2; assay: Antiviral activity against Human immunodeficiency virus 2 CDC 310319 infected in phytohemagglutininin and interleukin-2-stimulated PBMC assessed as inhibition of viral Reverse transcriptase by [3H]TTP incorporation assay; format: functional, organism-based
[4] = tested on: Human immunodeficiency virus 1; assay: Antiviral activity against Human immunodeficiency virus 1 A12 harboring Tyr127His, Asp174Asn and Arg178Lys mutations in nef protein infecting in CEM-SS cells assessed as inhibition of viral Reverse transcriptase by [3H]TTP incorporation assay
[5] = tested on: Human immunodeficiency virus 2; assay: Antiviral activity against Human immunodeficiency virus 2 CDC 310342 infected in phytohemagglutininin and interleukin-2-stimulated PBMC assessed as inhibition of viral Reverse transcriptase by [3H]TTP incorporation assay; format: functional, organism-based
CEM-SS = assay: Cytotoxicity against human CEM-SS cells by MTS assay; format: functional, cell-based
PBMC [6] = assay: Cytotoxicity against human PBMC assessed as cell viability at 1 uM by MTS assay; format: cell-based
[7] = tested on: Human immunodeficiency virus 1; assay: Antiviral activity against Human immunodeficiency virus 1 D1 harboring Tyr127His mutation in nef protein infecting in CEM-SS cells assessed as inhibition of viral Reverse transcriptase by [3H]TTP incorporation assay
[8] = tested on: Human immunodeficiency virus 1; assay: Antiviral activity against Human immunodeficiency virus 1 H10 harboring Tyr127His, Gly140Glu, Glu149Lys, Asp174Asn and Arg178Lys mutations in nef protein infecting in CEM-SS cells assessed as inhibition of viral Reverse transcriptase by [3H]TTP incorporation assay
[9] = tested on: Simian immunodeficiency virus; assay: Antiviral activity against simian immunodeficiency virus 69R infected in phytohemagglutininin and interleukin-2-stimulated PBMC assessed as inhibition of viral Reverse transcriptase by [3H]TTP incorporation assay; format: functional, organism-based
[10] = tested on: Human immunodeficiency virus 1; assay: Antiviral activity against Human immunodeficiency virus 1 A7 harboring Tyr127His mutation in nef protein infecting in CEM-SS cells assessed as inhibition of viral Reverse transcriptase by [3H]TTP incorporation assay
[11] = Cytotoxicity against human AA5 cells by MTS assay; format: cell-based
H9 = assay: Cytotoxicity against human H9 cells by MTS assay; format: functional, cell-based

SMILES: Cc1cn([C@H]2C[C@H](N=[N+]=[N-])[C@@H](CO)O2)c(=O)[nH]c1=O [ZIDOVUDINE]
- IC50 [1]: 10 nM
- Activity (PBMC [2]): Non-toxic
- IC50 [3]: 0.2 nM
- IC50 [4]: 80 nM
- IC50 [5]: 1 nM
- IC50 (CEM-SS): > 100 nM
- Activity (PBMC [6]): Non-toxic
- IC50 [7]: 15 nM
- IC50 [8]: 40 nM
- IC50 [9]: 0.5 nM
- IC50 [10]: 28 nM
- IC50 [11]: > 100 nM
- IC50 (H9): > 100 nM
